Where two headings read alike, the source gives them in different places.
How the values were obtained:
[1] = tested on: Sir-13; assay: Whole plant sugarbeet response to postemergence ALS-inhibiting herbicides; type: in vivo, Beta vulgaris L.; conditions: for R/S: Sir-13 whole plant, postemergence, relative to Rel-1
[2] = tested on: Sur; assay: as above; type: in vivo, Beta vulgaris L.; conditions: for R/S: Sur whole plant, postemergence, relative to Rel-1
[3] = tested on: Rel-1; assay: as above; type: in vivo, Beta vulgaris L.; conditions: Rel-1 whole plant, herbicide applied postemergence
[4] = tested on: 93R30B; assay: as above; type: in vivo, Beta vulgaris L.; conditions: for R/S: 93R30B (SB) whole plant, postemergence, relative to Rel-1
[5] = tested on: EL-49; assay: Shoot culture herbicide resistance (shoot injury and fresh weight on M20 media); type: cell-based, Beta vulgaris L.; conditions: for IC50 / R/S: EL-49; for IC50: herbicide concentration causing 50% injury to the shoot culture, 3 weeks, read-out: I50; for R/S: ratio of resistant to sensitive control (Rel-1) I50 values, shoot culture
Experimental: (§1) In step 7, shoot cultures were assessed for herbicide resistance by placing three small, consistently sized shoot cuttings on each plate of M20 media supplemented with logarithmically increasing concentrations of imidazolinone herbicide, sulfonylurea or triazolopyrimidine sulfonanilide ranging from 1 nM to 0.1 mM. 93R30 culture responses were compared to that of shoot cultures of a sensitive control (Rel-1) and a chlorsulfuron resistant, imidazolinone sensitive control (EL-49). Shoot cultures were maintained at 20 µE/m^2 s light intensity at 25°C for 3 weeks. Shoot culture was determined by rating shoot injury and fresh weight 3 weeks after transfer to selective media. Magnitude of herbicide resistance was determined by the ratio of resistant to sensitive I50 values (the herbicide concentration causing 50 percent injury).

[6] = tested on: Rel-1; assay: as above; type: cell-based, Beta vulgaris L.; conditions: Rel-1 sensitive control, herbicide concentration causing 50% injury to the shoot culture, 3 weeks, read-out: I50
Experimental: as §1

[7] = tested on: 93R30B; assay: as above; type: cell-based, Beta vulgaris L.; conditions: for R/S / IC50: 93R30B; for R/S: ratio of resistant to sensitive control (Rel-1) I50 values, shoot culture; for R/S / level of resistance: 30240 min; for IC50: herbicide concentration causing 50% injury to the shoot culture, 3 weeks, read-out: I50; for level of resistance: 93R30B in shoot culture
Experimental: as §1

[8] = tested on: ALS extracts from 93R30B; assay: ALS enzyme activity assay in leaf extracts (acetoin colorimetry); type: biochemical, Beta vulgaris L.; conditions: for resistance of the ALS enzyme: SB double mutant ALS enzyme in vitro
Experimental: Standard procedures were utilized to partially purify ALS from rapidly expanding leaves of greenhouse-grown sugar beet plants (Hart, et al. Weed Science 40:378-383 (1992)). Extracts from heterozygous 93R30B F1 plants and Rel-1 S1 seed were assayed for ALS activity in the presence of logarithmically increasing concentrations of imazethapyr. ALS activity was determined from leaf extracts of REL-1 and 93R30B sugarbeet lines. Plants were grown in the greenhouse as described above to the four to six leaf stage. ALS activity from fresh extracts was determined in the presence of imazethapyr and chlorsulfuron at logarithmically increasing concentrations. The methods and procedures used were modified from those outlined by Ray (Plant Physiol. 75:827-831 (1984)) and Shaner, et al. (Plant Physiol. 76:545-546 (1984)). Ten g of sugarbeet leaves were homogenized in 40 ml cold homogenization buffer (0.1 M K2HPO4, pH 7.5, 1 mM sodium pyruvate, 0.5 mM MgCl2, 0.5 mM thiamine pyrophosphate, 10 µM of flavin adenine dinucleotide, 10% by vol glycerol) plus 2.5 g polyvinylpolypyrolidone. The homogenate was filtered through eight layers of cheesecloth and centrifuged at 27,000 g for 20 minutes. The supernatant was removed and brought to 50% saturation with (NH4)2SO4. […]
(§2) ALS activity is measured by adding 0.2 ml of enzyme preparation (diluted 3:1 with resuspension buffer) to 1.3 ml of reaction buffer (25 mM K2HPO4, pH 7.0, 0.625 mM MgCl2, 25 mM sodium pyruvate, 0.625 mM thiamine pyrophosphate, 1.25 µM flavin adenine dinucleotide) and incubated at 35°C for 1 hour. […]
Purchased acetoin was used as a standard for the colorimetric reaction. Acetoin concentrations were determined by measuring the absorption of the reaction solution at 530 nm. […] Protein concentrations of the extracts was determined by the method of Bradford (Anal. Biochem. 72:248-254 (1976)) using bovine serum albumin for the standard curve. […]

[9] = tested on: ALS enzyme from Sur; assay: as above; type: biochemical, Beta vulgaris L.; conditions: Sur single mutant ALS enzyme in vitro
Experimental: Standard procedures were utilized to partially purify ALS from rapidly expanding leaves of greenhouse-grown sugar beet plants (Hart, et al. Weed Science 40:378-383 (1992)). Extracts from heterozygous 93R30B F1 plants and Rel-1 S1 seed were assayed for ALS activity in the presence of logarithmically increasing concentrations of imazethapyr. ALS activity was determined from leaf extracts of REL-1 and 93R30B sugarbeet lines. Plants were grown in the greenhouse as described above to the four to six leaf stage. ALS activity from fresh extracts was determined in the presence of imazethapyr and chlorsulfuron at logarithmically increasing concentrations. […]
as §2
Purchased acetoin was used as a standard for the colorimetric reaction. Acetoin concentrations were determined by measuring the absorption of the reaction solution at 530 nm. […] Protein concentrations of the extracts was determined by the method of Bradford (Anal. Biochem. 72:248-254 (1976)) using bovine serum albumin for the standard curve.

[10] = tested on: ALS enzyme from Sir-13; assay: as above; type: biochemical, Beta vulgaris L.; conditions: Sir-13 single mutant ALS enzyme in vitro
[11] = tested on: sensitive cells; assay: Cell selection on herbicide-supplemented solid B1 media; type: cell-based, Beta vulgaris L.; conditions: 50 nM in solid B1 media, 8-12 weeks, dim fluorescent light
From the text: Rel-1 (Regenerating East Lansing-1) is a highly regenerable male fertile sugar beet line used for initial cell selection for herbicide-resistant mutant to the sulfonylureas and is used as a sensitive control for most experiments. CR1-B This sugar beet isolate was developed by plating Rel-1 cells on chlorsulfuron-containing media. This variant is sulfonylurea resistant with modest resistance to the triazolopyrimidine herbicide, flumetsulam, but no imidazolinone resistance. This variant has been described by Saunders et al. (Crop Sci. 32:1357-1360) and Hart et al. (Weed Sci. 40:378-383 and 41:317-324). The SU resistance gene has been labeled Sur. 93R30B This isolate was developed by plating cells of a highly regenerable, Sur homozygous sugar beet plant (descendant of CR1-B) on media containing imazethapyr. EL-49 East Lansing 49, released by the USDA in 1993. Sugar beet line homozygous for the Sur gene, used for a sulfonylurea-resistant, imazethapyr- sensitive control. • a. Plants were selected as source materials for somaclonal selection based on their ability to generate callus under high cytokinin conditions (in B1 media) and regenerate shoots from callus. […]

Compound	R/S [1] [X]	R/S [2] [X]	I50 [3] [g ha^-1]	R/S [4] [X]	IC50 ([5]; Beta vulgaris, 504 h) [nM]	R/S ([5]; 30240 min) [X]	IC50 ([6]; Beta vulgaris, 504 h) [nM]	R/S [7] [X]	IC50 ([7]; Beta vulgaris, 504 h) [µM]	level of resistance [7]	other results
COCc1cnc(C2=NC(C)(C(C)C)C(=O)N2)c(C(=O)O)c1 (stereo not drawn) [AC299,263]	130	4	1.1	>250	70	3	30	1400	40	–	–
COc1nc(C)nc(NC(=O)NS(=O)(=O)c2ccccc2Cl)n1 [Chlorsulfuron]	1	>1000	0.07	20	25000	10000	2.5	10000	25	10,000 fold	R/S ([2]; listed as chlorsulfuron): > 1000 X; reduction of whole plant resistance of the SB double mutant ([4]; SB double mutant compared with Sur single mutant, whole plant): more than 50 fold
Cc1ccn2nc(S(=O)(=O)Nc3c(F)cccc3F)nc2n1 [Flumetsulam]	–	–	–	–	1100	40	28	60	1.7	60 fold	resistance of the ALS enzyme [8]: 200 X; resistance of the ALS enzyme [9]: 50 X; resistance of the ALS enzyme [10]: 3 X
CC(C)C1(C)N=C(c2nc3ccccc3cc2C(=O)O)NC1=O (stereo not drawn) [Imazaquin]	–	–	–	–	40	1	40	400	16	–	–
CCc1cnc(C2=NC(C)(C(C)C)C(=O)N2)c(C(=O)O)c1 (stereo not drawn) [Imazethapyr]	100	3	0.5	300	53	3	18	3600	64	3600 fold	resistance ([1]; Sir-13 single mutant, postemergence to whole plants): 100 fold; resistance of the ALS enzyme [8]: > 1000 X; level of resistance at the enzyme level ([8]; ratio of I50's for the resistant (93R30B, heterozygous F1) and sensitive (Rel-1) lines): 1750 fold; resistance ([2]; Sur single mutant, postemergence to whole plants): 3 fold; resistance ([4]; SB double mutant, postemergence to whole plants): 300 fold; resistance of the ALS enzyme [9]: 1 X; cell survival [11]: all sensitive cells died; resistance of the ALS enzyme [10]: 40 X; level of resistance ([5]; EL-49 in shoot culture, 30240 min): 3 fold
Cc1cc(C)nc(NC(=O)NS(=O)(=O)c2ccccc2C(=O)O)n1 [Sulfometuron]	1	23	0.2	4	–	–	–	–	–	–	–
Imazamethabenzmethyl	–	–	–	–	–	25	–	> 125	–	–	IC50 [5]: 20000 nM; IC50 [6]: 800 nM; IC50 [7]: > 100 µM

— patent EP0960190B1, “IMI[…] RESISTANT SUGAR BEET PLANTS” (Michigan State University, priority 1996, dated 1998)
